# Experiments:
# Type in all cases: cell-based, Staphylococcus aureus
# [1] = test system: MRSA; assay: Recombinant phage luciferase assay, oxacillin vs cefoxitin (Table 1), MRSA strains
# Description: Bacterial strains were serially diluted to approximately 1×10^3 CFU/mL and transferred to a 96-well plate at 135 μL per well. 15 μL of oxacillin or cefoxitin were added to the wells to reach a final concentration of 1.0 μg/mL or 2.0 μg/mL of oxicillin or 2.0 μg/mL, 4.0 μg/mL, 8.0 μg/mL, or 10.0 μg/mL of cefoxitin. The plate was then sealed and incubated at 37° C. for 2 hours. 10 μL of recombinant phage (1.6×10^8 pfu/mL) was added to each well. The plate was then re-sealed and incubated at 37° C. for 2 hours. A master mix was made containing 15 μL 5× lysis buffer, 50 μL luciferase assay buffer, and 1 μL luciferase substrate per well. 65 μL of master mix was added to each well. Luminescence from the reactions was read on a GLOMAX® Navigator and relative luminal units (RLU) for each reaction were analyzed. RLU values three times greater than an established background RLU level for LB (>750 RLU) were considered positive. The results, shown in Table 1, indicate that the recombinant phage are capable of detecting the tested bacterial strains.
# [2] = test system: BAA-1720 MRSA; assay: MRSA detection from BD BBL CultureSwabs (Table 4)
# Description: Bacterial strains were serially diluted and BD BBL CultureSwabs™ were inoculated with 50 ul of LB with approximately the target number of cells of 1000 CFU, 500 CFU, 250 CFU, 125 CFU, 63 CFU, 31 CFU, 16 CFU, or 8 CFU. Swabs were eluted with 1 mL modified Amies solution (included with commercially available Copan e-Swabs™). 135 μL of the eluted solution was added to each well. 15 μL of cefoxitin was added to the wells to reach a final concentration of 1.8 μg/mL, 3.6 μg/mL, or 5.4 μg/mL. The plate was then sealed and incubated at 37° C. for 2 hours. 10 μL of recombinant phage (1.6×10^8 pfu/mL) was added to each well. The plate was then re-sealed and incubated at 37° C. for an additional 2 hours. A master mix was made containing 15 μL 5× lysis buffer, 50 μL luciferase assay buffer, and 1 μL luciferase substrate per well. 65 μL of master mix was added to each well. Luminescence from the reactions were read on a GLOMAX® Navigator and relative luminal units (RLU) for each reaction were plotted and analyzed. RLU values three times greater than an established background RLU level for modified Amies solution (>1500 RLU) were considered positive. The results, shown in Table 4, indicate that a positive MRSA determination was made with 23 CFU in a well, originating from approximately 125 CFU on a swab when incubated with the previously established cut-off of 1.8 μg/mL. Positive results are highlighted in grey.
# [3] = test system: BAA-1720 - MRSA in co-culture with 12600 - MSSA; assay: Table 6, MRSA in co-culture with MSSA
# Description: Bacterial strains were serially diluted and transferred to a 96-well plate at 135 μL per well. 15 μL of cefoxitin was added to the wells to reach a final concentration of 1.8 μg/mL. The plate was then sealed and incubated at 37° C. for 2 hours or 3 hours. 10 μL of recombinant phage (1.6×10^8 pfu/mL) was added to each well. The plate was then re-sealed and incubated at 37° C. for an additional 1 or 2 hours. A master mix was made containing 15 μL 5× lysis buffer, 50 μL luciferase assay buffer, and 1 μL luciferase substrate per well. 65 μL of master mix was added to each well. Luminescence from the reactions was read on a GLOMAX® Navigator and relative luminal units (RLU) for each reaction were plotted and analyzed. RLU values three times greater than an established background RLU level for LB (>750 RLU) were considered positive. The results, shown in Table 6, indicate that samples with MRSA (38 CFU) can be distinguished from samples containing MSSA (up to 5088 CFU) using a 3-hour antibiotic/1-hour phage incubation protocol. Positive results are in bold. In Table 6, CFU values (318 CFU and 156 CFU) were experimentally validated by direct plating.
# [4] = strain AR0463 MRSA, detected CFU 419
# [5] = strain AR0465 MRSA, detected CFU 111
# [6] = strain AR0472 MRSA, detected CFU 190
# [7] = strain AR0476 MRSA, detected CFU 194
# [8] = strain AR0481 MRSA, detected CFU 43
# [9] = strain BAA-1720 MRSA, detected CFU 201
# [10] = target swab CFU 8, detected CFU 3
# [11] = target swab CFU 16, detected CFU 1
# [12] = target swab CFU 31, detected CFU 4
# [13] = target swab CFU 63, detected CFU 5
# [14] = target swab CFU 125, detected CFU 23
# [15] = target swab CFU 250, detected CFU 28
# [16] = target swab CFU 500, detected CFU 31
# [17] = target swab CFU 1000, detected CFU 76
# [18] = MSSA detected CFU 1272, MRSA 38
# [19] = MSSA detected CFU 2544, MRSA 38
# [20] = MSSA detected CFU 5088, MRSA 38
# [21] = MSSA detected CFU 10176, MRSA 38
compound,measurement,setting,value
"CO[C@@]1(NC(=O)Cc2cccs2)C(=O)N2C(C(=O)O)=C(COC(N)=O)CS[C@@H]21 [Cefoxitin, cefoxitin]",Cefoxitin (RLU) 2 ug/mL,[1]; [4],1125 RLU
same,Cefoxitin (RLU) 4 ug/mL,[1]; [4],349 RLU
same,Cefoxitin (RLU) 8 ug/mL,[1]; [4],287 RLU
same,Cefoxitin (RLU) 10 ug/mL,[1]; [4],246 RLU
same,Cefoxitin (RLU) 2 ug/mL,[1]; [5],7815 RLU
same,Cefoxitin (RLU) 4 ug/mL,[1]; [5],5254 RLU
same,Cefoxitin (RLU) 8 ug/mL,[1]; [5],4619 RLU
same,Cefoxitin (RLU) 10 ug/mL,[1]; [5],2869 RLU
same,Cefoxitin (RLU) 2 ug/mL,[1]; [6],3538 RLU
same,Cefoxitin (RLU) 4 ug/mL,[1]; [6],229 RLU
same,Cefoxitin (RLU) 8 ug/mL,[1]; [6],239 RLU
same,Cefoxitin (RLU) 10 ug/mL,[1]; [6],220 RLU
same,Cefoxitin (RLU) 2 ug/mL,[1]; [7],1202 RLU
same,Cefoxitin (RLU) 4 ug/mL,[1]; [7],213 RLU
same,Cefoxitin (RLU) 8 ug/mL,[1]; [7],204 RLU
same,Cefoxitin (RLU) 10 ug/mL,[1]; [7],248 RLU
same,Cefoxitin (RLU) 2 ug/mL,[1]; [8],3499 RLU
same,Cefoxitin (RLU) 4 ug/mL,[1]; [8],983 RLU
same,Cefoxitin (RLU) 8 ug/mL,[1]; [8],222 RLU
same,Cefoxitin (RLU) 10 ug/mL,[1]; [8],250 RLU
same,Cefoxitin (RLU) 2 ug/mL,[1]; [9],14910 RLU
same,Cefoxitin (RLU) 4 ug/mL,[1]; [9],11250 RLU
same,Cefoxitin (RLU) 8 ug/mL,[1]; [9],7123 RLU
same,Cefoxitin (RLU) 10 ug/mL,[1]; [9],6431 RLU
same,Cefoxitin (RLU) 1.8 ug/mL,[2]; [10],615 RLU
same,Cefoxitin (RLU) 3.6 ug/mL,[2]; [10],513 RLU
same,Cefoxitin (RLU) 5.4 ug/mL,[2]; [10],789 RLU
same,Cefoxitin (RLU) 1.8 ug/mL,[2]; [11],1711 RLU
same,Cefoxitin (RLU) 3.6 ug/mL,[2]; [11],1623 RLU
same,Cefoxitin (RLU) 5.4 ug/mL,[2]; [11],1172 RLU
same,Cefoxitin (RLU) 1.8 ug/mL,[2]; [12],3572 RLU
same,Cefoxitin (RLU) 3.6 ug/mL,[2]; [12],1469 RLU
same,Cefoxitin (RLU) 5.4 ug/mL,[2]; [12],1438 RLU
same,Cefoxitin (RLU) 1.8 ug/mL,[2]; [13],900 RLU
same,Cefoxitin (RLU) 3.6 ug/mL,[2]; [13],1068 RLU
same,Cefoxitin (RLU) 5.4 ug/mL,[2]; [13],948 RLU
same,Cefoxitin (RLU) 1.8 ug/mL,[2]; [14],3630 RLU
same,Cefoxitin (RLU) 3.6 ug/mL,[2]; [14],4720 RLU
same,Cefoxitin (RLU) 5.4 ug/mL,[2]; [14],4597 RLU
same,Cefoxitin (RLU) 1.8 ug/mL,[2]; [15],6254 RLU
same,Cefoxitin (RLU) 3.6 ug/mL,[2]; [15],3843 RLU
same,Cefoxitin (RLU) 5.4 ug/mL,[2]; [15],3381 RLU
same,Cefoxitin (RLU) 1.8 ug/mL,[2]; [16],7571 RLU
same,Cefoxitin (RLU) 3.6 ug/mL,[2]; [16],7693 RLU
same,Cefoxitin (RLU) 5.4 ug/mL,[2]; [16],5263 RLU
same,Cefoxitin (RLU) 1.8 ug/mL,[2]; [17],13210 RLU
same,Cefoxitin (RLU) 3.6 ug/mL,[2]; [17],7193 RLU
same,Cefoxitin (RLU) 5.4 ug/mL,[2]; [17],6922 RLU
same,2 HR AB + 2 HR Phage 1.8 ug/mL,"[3]; MSSA detected CFU 156, MRSA 38",5084 RLU
same,3 HR AB + 1 HR Phage 1.8 ug/mL,"[3]; MSSA detected CFU 156, MRSA 38",3976 RLU
same,2 HR AB + 2 HR Phage 1.8 ug/mL,"[3]; MSSA detected CFU 318, MRSA 38",7143 RLU
same,3 HR AB + 1 HR Phage 1.8 ug/mL,"[3]; MSSA detected CFU 318, MRSA 38",4567 RLU
same,2 HR AB + 2 HR Phage 1.8 ug/mL,"[3]; MSSA detected CFU 636, MRSA 38",7217 RLU
same,3 HR AB + 1 HR Phage 1.8 ug/mL,"[3]; MSSA detected CFU 636, MRSA 38",3946 RLU
same,2 HR AB + 2 HR Phage 1.8 ug/mL,[3]; [18],6263 RLU
same,3 HR AB + 1 HR Phage 1.8 ug/mL,[3]; [18],4930 RLU
same,2 HR AB + 2 HR Phage 1.8 ug/mL,[3]; [19],10730 RLU
same,3 HR AB + 1 HR Phage 1.8 ug/mL,[3]; [19],3749 RLU
same,2 HR AB + 2 HR Phage 1.8 ug/mL,[3]; [20],11400 RLU
same,3 HR AB + 1 HR Phage 1.8 ug/mL,[3]; [20],3548 RLU
same,2 HR AB + 2 HR Phage 1.8 ug/mL,[3]; [21],13260 RLU
same,3 HR AB + 1 HR Phage 1.8 ug/mL,[3]; [21],5347 RLU
